From PMC6540222, “Small Molecule Inhibitors of KDM5 Histone Demethylases Increase the Radiosensitivity of Breast Cancer Cells Overexpressing JARID1B” (Molecules, 2019)
One block for each compound: values may come before it.

Assays:
[1] = tested on: γ-H2AX levels in MCF-7 cells; experiment: Western blotting of H2AX phosphorylation after irradiation; type: cell-based, human; details: RS5033 10 μM, KDOAM-25 0.03 μM
Protocol: (§1) Proteins were resolved on a 12% (histones) or 5% (JARID1B) denaturing polyacrylamide gel, using either 4 μg of histone preparation or 40 μg of cell lysate. After electrophoresis, proteins were transferred on a nitrocellulose membrane (Protran™ […] NC, # 10600002, GE Healthcare (Amersham™), Chicago, IL, USA) via wet transfer method using a Bio-Rad tank. Transfer efficiency was verified via ponceau staining (#P7767, Sigma-Aldrich). Filters were blocked with either milk (#70166, Sigma-Aldrich) or bovine serum albumin (#A3069, Sigma-Aldrich) and then hybridized over night at 4 °C in gentle rotation with the following antibodies: rabbit anti-H3K4me3 (1:1000, #39915, Active Motif, RRID:AB_2687512); rabbit-anti-H3K27me3 (1:1000, #9733, Cell Signaling Technology, RRID:AB_2616029); rabbit-anti- H3K9pan-methylated (1:1000, #4473, RRID:AB_10544693); rabbit-anti-H3 ([…], Cat#1791, ABCAM, RRID:AB_302613); rabbit anti-H2AX (1:1000, Cat#7631, Cell Signaling Technology, RRID:AB_10860771), rabbit anti-Phospho-H2AX (1:1000, Cat#9718, Cell Signaling Technology, RRID:AB_2118009), rabbit anti-JARID1B (1:50, Cell Signaling Technology, Cat#3273 RRID: AB_1264191). Goat-anti-Rabbit Horseradish Peroxidase conjugated (1:10,000, #31460, Thermo Fisher Scientific, Waltham, MA, USA RRID:AB_228341) was used as secondary antibody for 1 hour hybridization at room temperature. Blots were scanned and analyzed with a ChemiDoc XRS+ Imaging System (Bio-Rad). The volumes of each band of protein was acquired using Bio-Rad’s ImageLab software by means of volume tools using global quantification. The signal for each protein was normalized to the housekeeping protein and ratios with average control values were determined. For histones as loading control was used either total histone H3 detected by a specific antibody or histone H1 levels by staining the upper part of the gel properly cut before protein transfer on nitrocellulose membrane.

[2] = tested on: MCF-7 cells; experiment: Flow-cytometry analysis of cell cycle distribution; type: cell-based, human; details: MCF-7, same range of concentrations as H3K4me3 test (not shown)
Protocol: Flow-cytometry analysis of DNA content was carried out using an EPICS xl flow-cytometer (Beckman-Coulter, Brea, CA, USA). DMSO and inhibitor treated MCF-7 cells were trypsinized, pelleted, washed with PBS and finally resuspended in PBS containing 0.1% Triton-X-100 (#A1388.1000, AppliChem, Darmstadt, Germany) and 40 μg/mL propidium iodide (#P-4170, Sigma). After 20 min incubation at 37 °C the samples were analyzed. 10,000 events were acquired for each sample. Acquired data were analyzed using the WinMDI software by Joe Trotter, available at http://facs.scripps.edu.

[3] = tested on: panel of 55 receptors and enzymes; set-up: method as in PMID 28262558; details: cited from earlier work
[4] = tested on: MCF-7 cells; experiment: CCK-8 viability assay after X-ray irradiation; type: cell-based, human; details: MCF-7 irradiated with 3 Gy, all concentrations tested, compared to DMSO control, CCK-8 48 h post irradiation
Protocol: The cytoxicity assay was performed with Cell Counting Kit-8 (#96992, Sigma-Aldrich) according to the manufacturer’s instructions. 100 µL of MCF-7 T47D or MDA-MB231 cell suspension (5000 cells/well) was dispensed in a 96-well plate. After 24 h, inhibitor or DMSO was added in growth medium and then cells were irradiated. 48 h post irradiation, 10 μL of CCK-8 solution was added to each well of the plate and incubated again for 1 h. Incubate the plate for 1–4 h in the incubator. The absorbance at 450 nm was read using a VICTOR2 1420 reader (Perkin Elmer Wallac, Waltham, MA, USA). The absorbance at 450 nm of each sample, which is proportional to the number of viable cells, was first normalized on the same value of absorbance of blank (a well with only growth medium). The absorbance of each dose of radiation (sham, 0.3, 1 and 3 Gy) was normalized to the corresponding DMSO control and then, for each concentration of inhibitors, these values were normalized to the corresponding sham control.

[5] = tested on: KDM5A-D; details: in vitro, toward KDM5 enzymes; ref Tumber et al. [49]; cited from earlier work
[6] = tested on: H3K4me3 levels in MCF-7 cells; experiment: Western blotting of H3K4me3 levels in bulk chromatin; type: cell-based, human; details: MCF7 bulk chromatin, 24 h
Protocol: Histone isolation was performed according to acid extraction of histones protocol of Shechter and colleagues. Histone concentration was determined by running 5 μL of samples and known concentrations of commercially available purified calf thymus histones (from Sigma Aldrich Cat. #000000010223565001) on a SDS-PAGE gel. The gel is stained with Coomassie blue G 250 (BIO-RAD Cat. #161-0786) for 1 hour at room temperature and then destained in distilled water. The gel image is acquired with ChemiDoc XRS+ Imaging System (Bio-Rad, Hercules, CA, USA) and the volumes of bands of the samples are compared to standard concentrations of calf thymus histone.
as §1

[7] = tested on: MCF-7 cells; experiment: Clonogenic assay after X-ray irradiation; type: cell-based, human; details: MCF-7, 0.03 μM, 3 and 10 Gy, compared to DMSO control
Protocol: One hour after treatment with inhibitors, cells were exposed to X-ray using a MLG 300/6-D apparatus (Gilardoni, Lecco, Italy) set to […] and 6 mA, in order to produce an equivalent absorbed dose of 1cGy/s. Afterwards, cells were harvested, counted and then diluted in inhibitor containing growth medium. Appropriate cell numbers were seeded in quadruplicate according to the doubling time of the cell line and to radiation dose. 24 h after this seeding, the medium with inhibitor was replaced with fresh DMEM and cells were then incubated for 14 days (enough time to allow at least six cell divisions). After this period of growth, cells were washed twice with PBS and then fixed and stained with a suitable volume of a solution made of 0.3% Methylene Blue and 80% Ethanol for 30 min at room temperature. After washing cells twice with ddH2O, plates were pictured with ChemiDoc XRS+ Imaging System (Bio-Rad) in colorimetric mode. Colonies were detected using Fiji software, with the “Find maxima” function setting a background noise threshold of 3000. Radiation-dose response curveS to X-ray for DMSO and inhibitor samples were calculated using surviving fraction. Plating efficiency and surviving fraction were calculated as follows:Plating efficiency = number of colonies counted/number of cells plated Surviving fraction = Plating efficiency/plating efficiency of shame sample

[8] = tested on: MM1S multiple myeloma cells; set-up: method as in PMID 28262558; details: cited from earlier work
[9] = biological target: KDM5D (Homo sapiens, UniProt Q9BY66); experiment: Surface Plasmon Resonance (SPR), immobilized KDM5D; type: binding; details: KDM5D immobilized on COOH5 sensorchip, buffer HSP-1%D, analyte 6.25-100 μM
Protocol: Surface Plasmon Resonance (SPR) experiments were carried out using a SensiQ Pioneer system (ICx Nomadics, Stillwater, OK, USA). Immobilization of ligand (KDM5D) was carried out essentially as in Ilari et al.. The sensor chip (COOH5) was activated chemically by a 100 µL injection of a 1:1 mixture of N-ethyl-N′-(3-([…])carbodiimide (200 mM) and N-hydroxysuccinimide (50 mM) at a flow rate of 5 µL/min. KDM5D was immobilized on activated sensor chips via amine coupling. The immobilization was carried out in 20 mM sodium acetate at pH 4.5; the remaining unreacted groups were blocked by injecting 1 M ethanolamine hydrochloride (100 µL). The amount of immobilized KDM5D was detected by mass concentration-dependent changes in the refractive index on the sensor chip surface and corresponded to about 11,000 resonance units (RU); an empty flow cell was used as a reference. Analytes, i.e., inhibitors RS3152, RS3183, RS3195, RS4995 and RS5033 were dissolved in DMSO at a concentration of 10 mM and diluted in HSP buffer (10 mM Hepes pH 7.4, 150 mM NaCl + 0.005% surfactant P20) to yield 100 μM inhibitor concentration in HSP + 1% DMSO (HSP-1%D). The analytes were automatically diluted in HSP-1%D and injected on the sensorchip for 120 s at a constant flow (30 µL/min); analyte concentrations were: (1) 6.25 μM; (2) 12.5 μM; (3) 25 μM; (4) 50 μM; (5) 100 μM. The increase in RU relative to baseline indicates complex formation; the plateau region represents the steady-state phase of the interaction, whereas the decrease in RU after 120 s represents dissociation of analytes from immobilized KDM5 after injection of buffer HSP-1%D. The sensorgrams were analysed using the SensiQ Qdat 4.0 program and using simple Scatchard plots.

Sequence of KDM5D (Q9BY66 whole entry): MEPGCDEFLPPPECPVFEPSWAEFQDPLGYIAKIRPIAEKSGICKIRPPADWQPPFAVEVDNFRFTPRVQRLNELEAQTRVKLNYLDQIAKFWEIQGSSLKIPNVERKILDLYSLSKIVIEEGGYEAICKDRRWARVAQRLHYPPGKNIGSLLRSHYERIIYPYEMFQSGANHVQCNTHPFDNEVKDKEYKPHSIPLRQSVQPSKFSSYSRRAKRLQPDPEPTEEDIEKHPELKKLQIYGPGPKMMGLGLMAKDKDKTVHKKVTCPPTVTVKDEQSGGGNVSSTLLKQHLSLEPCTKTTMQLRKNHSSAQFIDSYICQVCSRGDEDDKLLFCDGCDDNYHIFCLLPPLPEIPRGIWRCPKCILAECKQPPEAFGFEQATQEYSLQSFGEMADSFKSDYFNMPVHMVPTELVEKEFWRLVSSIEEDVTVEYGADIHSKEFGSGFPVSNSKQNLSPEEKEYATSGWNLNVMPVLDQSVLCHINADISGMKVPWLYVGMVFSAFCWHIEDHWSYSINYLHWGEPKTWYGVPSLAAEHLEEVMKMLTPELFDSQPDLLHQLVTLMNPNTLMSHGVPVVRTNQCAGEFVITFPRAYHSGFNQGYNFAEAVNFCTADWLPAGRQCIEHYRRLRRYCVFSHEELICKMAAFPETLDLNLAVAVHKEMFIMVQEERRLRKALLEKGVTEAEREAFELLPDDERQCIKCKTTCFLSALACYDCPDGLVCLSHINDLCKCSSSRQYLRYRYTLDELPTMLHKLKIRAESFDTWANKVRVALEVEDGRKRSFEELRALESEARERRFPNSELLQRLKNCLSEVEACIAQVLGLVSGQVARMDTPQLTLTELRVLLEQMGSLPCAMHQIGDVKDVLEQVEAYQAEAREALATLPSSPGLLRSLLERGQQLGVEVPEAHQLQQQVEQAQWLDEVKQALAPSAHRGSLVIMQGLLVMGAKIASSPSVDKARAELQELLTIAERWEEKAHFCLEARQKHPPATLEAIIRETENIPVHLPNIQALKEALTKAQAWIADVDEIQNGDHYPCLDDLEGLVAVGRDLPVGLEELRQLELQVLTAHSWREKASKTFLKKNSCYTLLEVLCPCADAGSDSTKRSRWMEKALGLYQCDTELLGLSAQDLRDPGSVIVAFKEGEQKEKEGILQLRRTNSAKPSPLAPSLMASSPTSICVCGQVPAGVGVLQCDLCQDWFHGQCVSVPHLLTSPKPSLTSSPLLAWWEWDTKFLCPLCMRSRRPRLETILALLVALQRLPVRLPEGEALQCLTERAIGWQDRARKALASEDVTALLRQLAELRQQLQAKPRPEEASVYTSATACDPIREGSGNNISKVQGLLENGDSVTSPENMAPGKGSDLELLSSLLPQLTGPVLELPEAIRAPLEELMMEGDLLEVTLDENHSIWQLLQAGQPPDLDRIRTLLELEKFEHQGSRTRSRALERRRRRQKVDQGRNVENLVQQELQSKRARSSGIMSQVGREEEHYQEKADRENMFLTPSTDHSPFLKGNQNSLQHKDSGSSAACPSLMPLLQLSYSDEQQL

SMILES: CCN(CCN(C)C)C(=O)CNCc1cc(C(N)=O)ccn1 [KDOAM-25, reference compound]
ɤH2AX increase normalized to the amount of H2AX ([1]; MCF-7, 6 Gy, 4-36 h): not significant
amount of ɤH2AX ([1]; MCF-7, sham-irradiated and irradiated (6 Gy) cells): increases
effect on cell cycle [2]: does not show any significant effect
off-target activity [3]: no off-target activity
reduction of viable cells [4]: 20–35%
IC50 [5]: < 0.1 µM
increase of H3K4 tri-methylation ([6]; 0.03–1 μM): around 1.5 fold
increase of H3K4 tri-methylation at higher concentrations ([6]; concentrations above 1 μM): the effect is lost
proliferative capacity (clonogenic survival) [7]: slight but significant decrease
proliferation of MM1S multiple myeloma cells [8]: block proliferation

Kd [9]: 62 ± 5 µM
SMILES: COc1ccc(S(=O)(=O)Nc2cccc(C(=O)n3cccc3)c2)cc1 [RS3152]

Kd [9]: 150 ± 15 µM
SMILES: COc1ccc(S(=O)(=O)Nc2cccc(C(=O)O)c2)cc1 [RS3183]

Kd [9]: 38 ± 3 µM
SMILES: CCOC(=O)c1ccccc1C(=O)c1ccc(NS(=O)(=O)c2ccc(Br)cc2)cc1 [RS4995]
